Measured values as given in ChEMBL document CHEMBL1201862, “PubChem BioAssay data set” (2004).
Structures can show the parent of a compound that is named as a salt. The source made the active and inactive calls.

What was measured:
[1] = cells
[2] = biological target: T1, Oxysterols receptor LXR-beta (Homo sapiens, UniProt P55055); type: functional, cell-based;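 further: Cell-based luminescence dose-response assay of agonist activity at LXR, run as a confirmatory counterscreen to a daf-12 agonist screen; HEK293 cells with Gal4-LXR fusion and GAL4-driven luciferase reporter; agonist potency from rising luciferase signal of a Gal4-LXR reporter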
T1 sequence (P55055 whole entry): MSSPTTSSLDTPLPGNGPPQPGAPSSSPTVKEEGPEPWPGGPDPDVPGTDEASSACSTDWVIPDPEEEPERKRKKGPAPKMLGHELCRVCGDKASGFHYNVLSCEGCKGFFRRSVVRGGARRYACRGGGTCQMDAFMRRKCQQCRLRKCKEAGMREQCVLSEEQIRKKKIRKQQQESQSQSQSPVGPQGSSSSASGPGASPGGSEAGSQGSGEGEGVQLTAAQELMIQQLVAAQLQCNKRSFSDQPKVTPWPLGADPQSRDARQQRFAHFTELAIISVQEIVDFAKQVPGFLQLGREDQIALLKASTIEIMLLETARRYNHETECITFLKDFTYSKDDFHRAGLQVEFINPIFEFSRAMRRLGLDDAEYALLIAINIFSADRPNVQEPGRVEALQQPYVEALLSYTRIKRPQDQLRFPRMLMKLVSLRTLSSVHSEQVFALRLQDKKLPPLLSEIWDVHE

[3] = biological target: T2, Protein skinhead-1 (Caenorhabditis elegans, UniProt P34707); type: functional
T2 sequence (P34707 whole entry): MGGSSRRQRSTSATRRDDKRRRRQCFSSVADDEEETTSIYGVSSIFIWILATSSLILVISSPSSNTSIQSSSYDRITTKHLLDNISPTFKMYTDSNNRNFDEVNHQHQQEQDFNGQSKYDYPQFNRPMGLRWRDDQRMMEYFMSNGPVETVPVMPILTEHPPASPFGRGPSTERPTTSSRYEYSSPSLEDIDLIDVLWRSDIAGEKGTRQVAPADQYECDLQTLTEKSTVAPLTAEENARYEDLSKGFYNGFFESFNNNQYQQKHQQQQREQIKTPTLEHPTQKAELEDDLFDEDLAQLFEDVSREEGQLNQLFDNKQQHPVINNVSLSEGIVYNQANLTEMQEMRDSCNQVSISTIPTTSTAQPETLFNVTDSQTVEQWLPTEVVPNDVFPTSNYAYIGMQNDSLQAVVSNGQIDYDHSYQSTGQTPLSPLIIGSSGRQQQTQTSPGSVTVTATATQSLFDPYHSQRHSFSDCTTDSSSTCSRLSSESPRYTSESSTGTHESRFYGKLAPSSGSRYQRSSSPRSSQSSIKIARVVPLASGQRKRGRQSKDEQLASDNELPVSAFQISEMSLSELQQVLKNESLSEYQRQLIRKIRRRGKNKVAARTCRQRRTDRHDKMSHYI

[4] = biological target: T3, Heat shock factor protein 1 (Mus musculus, UniProt P38532); assay: inhibition of MG132-induced HSE-luciferase signal, confirmation, cell-based, NIH3T3, luminescence, dose retest (AID 2382); type: functional;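 further: NIH3T3 fibroblasts with HSF1-driven luciferase reporter stressed by proteasome inhibitor MG132; luminescence from HSF1-driven luciferase expression after 8 hours of MG132 stress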
T3 sequence (P38532 whole entry): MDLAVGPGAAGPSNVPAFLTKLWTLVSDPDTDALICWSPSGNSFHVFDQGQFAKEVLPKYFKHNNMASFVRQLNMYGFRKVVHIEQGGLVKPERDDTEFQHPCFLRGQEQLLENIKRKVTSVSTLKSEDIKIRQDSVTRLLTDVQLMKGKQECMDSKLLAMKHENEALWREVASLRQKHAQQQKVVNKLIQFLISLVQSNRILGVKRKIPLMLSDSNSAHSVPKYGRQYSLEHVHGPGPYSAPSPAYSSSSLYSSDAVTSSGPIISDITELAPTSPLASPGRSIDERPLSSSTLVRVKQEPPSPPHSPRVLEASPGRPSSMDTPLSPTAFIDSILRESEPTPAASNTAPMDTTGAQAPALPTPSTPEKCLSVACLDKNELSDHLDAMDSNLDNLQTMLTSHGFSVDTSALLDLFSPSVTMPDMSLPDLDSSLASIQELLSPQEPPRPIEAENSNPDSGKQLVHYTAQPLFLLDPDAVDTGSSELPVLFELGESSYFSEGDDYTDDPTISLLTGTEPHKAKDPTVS

[5] = biological target: T4, COUP transcription factor 2 (Homo sapiens, UniProt P24468); assay: Luminescence-based cell-based high throughput dose response assay to identify inhibitors of COUP-TFII (NR2F2).; type: functional;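 further: HEK293 cells transiently cotransfected with COUP-TFII expression vector and reporter; luciferase reporter luminescence driven by COUP-TFII from the pX2-168 reporter plasmid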
T4 sequence (P24468 whole entry): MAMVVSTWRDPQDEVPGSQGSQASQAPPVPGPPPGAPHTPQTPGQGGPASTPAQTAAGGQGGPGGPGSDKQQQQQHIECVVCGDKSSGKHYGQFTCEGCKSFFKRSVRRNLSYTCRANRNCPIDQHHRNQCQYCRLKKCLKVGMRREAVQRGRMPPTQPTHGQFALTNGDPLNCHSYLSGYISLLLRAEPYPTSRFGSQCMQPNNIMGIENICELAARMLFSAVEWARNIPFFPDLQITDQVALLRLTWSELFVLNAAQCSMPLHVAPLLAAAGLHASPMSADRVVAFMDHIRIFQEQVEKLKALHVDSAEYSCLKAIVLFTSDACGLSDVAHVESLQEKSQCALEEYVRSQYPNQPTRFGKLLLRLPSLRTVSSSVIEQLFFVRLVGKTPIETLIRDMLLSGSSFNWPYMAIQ

[6] = biological target: T5, Cytochrome P450 1A2 (Homo sapiens, UniProt P05177);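 further: PubChem cytochrome P450 panel assay, CYP1A2 panel member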
T5 sequence (P05177 whole entry): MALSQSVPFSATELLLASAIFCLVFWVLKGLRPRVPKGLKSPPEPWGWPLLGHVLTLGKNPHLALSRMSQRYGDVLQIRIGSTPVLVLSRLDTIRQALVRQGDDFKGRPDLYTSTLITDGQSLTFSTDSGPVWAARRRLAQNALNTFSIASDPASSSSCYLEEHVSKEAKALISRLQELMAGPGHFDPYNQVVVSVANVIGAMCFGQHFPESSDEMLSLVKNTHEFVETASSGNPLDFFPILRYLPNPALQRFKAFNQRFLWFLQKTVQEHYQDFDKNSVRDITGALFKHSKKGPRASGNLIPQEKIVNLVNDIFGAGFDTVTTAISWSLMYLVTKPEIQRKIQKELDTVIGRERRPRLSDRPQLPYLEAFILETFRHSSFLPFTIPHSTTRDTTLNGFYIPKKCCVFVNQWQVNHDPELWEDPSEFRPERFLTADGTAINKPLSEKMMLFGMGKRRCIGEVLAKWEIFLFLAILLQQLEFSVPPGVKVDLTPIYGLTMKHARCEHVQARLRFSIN

[7] = biological target: T6, 1-phosphatidylinositol 4,5-bisphosphate phosphodiesterase gamma-1 (Homo sapiens, UniProt P19174); assay: Counterscreen for inhibitors of phospholipase C isozymes (PLC-B3): Fluorescence-based biochemical high throughput dose response assay to identify inhibitors of phospholipase C isozymes (PLC-gamma1).
T6 sequence (P19174 whole entry): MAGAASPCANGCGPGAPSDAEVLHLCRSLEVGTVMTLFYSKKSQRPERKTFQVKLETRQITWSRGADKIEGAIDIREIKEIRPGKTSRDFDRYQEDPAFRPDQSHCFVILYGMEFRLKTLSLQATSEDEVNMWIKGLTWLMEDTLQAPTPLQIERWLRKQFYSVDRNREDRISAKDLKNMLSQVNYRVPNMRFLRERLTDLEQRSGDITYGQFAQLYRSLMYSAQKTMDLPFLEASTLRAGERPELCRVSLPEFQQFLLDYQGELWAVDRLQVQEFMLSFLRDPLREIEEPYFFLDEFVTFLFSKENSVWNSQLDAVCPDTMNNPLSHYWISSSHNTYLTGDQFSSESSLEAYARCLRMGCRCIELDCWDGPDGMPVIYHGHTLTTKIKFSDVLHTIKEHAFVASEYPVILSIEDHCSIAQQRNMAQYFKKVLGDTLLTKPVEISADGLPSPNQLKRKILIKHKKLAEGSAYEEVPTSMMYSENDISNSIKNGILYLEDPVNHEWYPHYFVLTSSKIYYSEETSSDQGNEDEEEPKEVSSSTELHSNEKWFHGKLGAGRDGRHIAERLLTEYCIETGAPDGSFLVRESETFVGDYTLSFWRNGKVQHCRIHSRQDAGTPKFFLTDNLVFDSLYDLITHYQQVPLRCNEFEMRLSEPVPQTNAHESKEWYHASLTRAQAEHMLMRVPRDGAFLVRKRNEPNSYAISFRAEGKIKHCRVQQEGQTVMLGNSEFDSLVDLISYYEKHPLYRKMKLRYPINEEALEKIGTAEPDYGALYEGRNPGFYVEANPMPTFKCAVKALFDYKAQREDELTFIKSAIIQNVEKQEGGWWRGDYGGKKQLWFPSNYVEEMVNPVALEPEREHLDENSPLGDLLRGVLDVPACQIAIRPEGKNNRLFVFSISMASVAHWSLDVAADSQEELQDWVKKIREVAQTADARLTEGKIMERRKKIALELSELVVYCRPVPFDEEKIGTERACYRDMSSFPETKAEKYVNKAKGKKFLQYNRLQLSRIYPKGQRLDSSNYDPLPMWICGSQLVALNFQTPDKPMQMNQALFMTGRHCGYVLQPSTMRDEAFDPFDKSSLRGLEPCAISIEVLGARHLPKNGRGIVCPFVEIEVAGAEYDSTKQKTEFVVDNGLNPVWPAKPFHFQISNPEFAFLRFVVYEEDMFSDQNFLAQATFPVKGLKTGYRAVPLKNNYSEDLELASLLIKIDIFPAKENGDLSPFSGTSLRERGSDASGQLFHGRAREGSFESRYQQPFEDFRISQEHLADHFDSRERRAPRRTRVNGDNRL

[8] = biological target: T7, 1-phosphatidylinositol 4,5-bisphosphate phosphodiesterase beta-3 (Homo sapiens, UniProt Q01970); assay: Fluorescence-based biochemical high throughput dose response assay to identify inhibitors of phospholipase C isozymes (PLC-B3).
T7 sequence (Q01970 whole entry): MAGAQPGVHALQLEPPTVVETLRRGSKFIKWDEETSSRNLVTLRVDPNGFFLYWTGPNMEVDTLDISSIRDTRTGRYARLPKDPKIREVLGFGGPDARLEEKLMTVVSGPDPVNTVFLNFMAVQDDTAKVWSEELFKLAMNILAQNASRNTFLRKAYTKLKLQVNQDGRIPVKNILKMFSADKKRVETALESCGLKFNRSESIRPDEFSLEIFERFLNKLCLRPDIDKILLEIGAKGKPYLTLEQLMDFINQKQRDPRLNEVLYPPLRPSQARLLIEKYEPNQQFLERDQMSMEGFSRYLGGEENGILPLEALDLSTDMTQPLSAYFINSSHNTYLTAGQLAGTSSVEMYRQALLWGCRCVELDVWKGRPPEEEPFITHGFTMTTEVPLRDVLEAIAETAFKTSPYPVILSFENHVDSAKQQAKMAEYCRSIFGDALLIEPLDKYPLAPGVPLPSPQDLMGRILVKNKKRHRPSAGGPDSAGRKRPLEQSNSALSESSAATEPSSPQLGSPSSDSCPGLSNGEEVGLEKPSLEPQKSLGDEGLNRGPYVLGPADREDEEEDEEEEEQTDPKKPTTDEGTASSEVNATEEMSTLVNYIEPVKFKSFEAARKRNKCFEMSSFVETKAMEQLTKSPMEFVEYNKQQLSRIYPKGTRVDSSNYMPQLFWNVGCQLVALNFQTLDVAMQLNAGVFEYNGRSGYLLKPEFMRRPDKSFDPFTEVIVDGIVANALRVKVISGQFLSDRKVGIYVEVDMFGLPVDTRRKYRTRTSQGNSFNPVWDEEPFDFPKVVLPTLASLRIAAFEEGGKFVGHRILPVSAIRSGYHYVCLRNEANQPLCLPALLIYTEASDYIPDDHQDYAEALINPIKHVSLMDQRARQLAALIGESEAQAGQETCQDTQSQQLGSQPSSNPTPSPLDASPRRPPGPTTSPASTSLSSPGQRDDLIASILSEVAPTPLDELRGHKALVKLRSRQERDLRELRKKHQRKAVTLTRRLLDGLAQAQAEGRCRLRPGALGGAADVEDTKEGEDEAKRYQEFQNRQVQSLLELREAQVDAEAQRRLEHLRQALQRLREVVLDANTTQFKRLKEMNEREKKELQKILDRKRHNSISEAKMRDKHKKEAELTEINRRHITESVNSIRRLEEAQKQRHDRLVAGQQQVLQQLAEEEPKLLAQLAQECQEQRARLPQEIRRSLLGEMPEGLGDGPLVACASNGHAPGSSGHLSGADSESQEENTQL

[9] = biological target: Voltage-dependent T-type calcium channel subunit alpha-1H (Homo sapiens, UniProt O95180); type: functional;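 further: channel activity triggered by adding a high calcium stimulation buffer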
[10] = HepG2 cell cytotoxicity, dose response, cytotoxicity control, cherry-picked samples (AID 1159577); type: functional, cell-based
[11] = biological target: T8, Polyadenylate-binding protein 1 (Homo sapiens, UniProt P11940); assay: PABP1 MLLE–PAM2 binding inhibitor potency, dose response, biochemical, fluorescence polarization, FITC-PAM2 peptide (AID 602259); type: functional; conditions: read-out: IC50_Mean
[12] = biological target: T8, Polyadenylate-binding protein 1; assay: PABP1 MLLE–PAM2 interaction inhibitors, dose response, miRNA deadenylation inhibitor project, biochemical, fluorescence polarization, Cy5-PAM2 peptide, secondary (AID 602260); type: functional; conditions: read-out: IC50_Mean
[13] = Dose-response inhibition of insulin secretion in a rat insulinoma line at 5 mM glucose (AID 1117331); type: functional, cell-based; conditions: INS-1E

T8 sequence (P11940 whole entry): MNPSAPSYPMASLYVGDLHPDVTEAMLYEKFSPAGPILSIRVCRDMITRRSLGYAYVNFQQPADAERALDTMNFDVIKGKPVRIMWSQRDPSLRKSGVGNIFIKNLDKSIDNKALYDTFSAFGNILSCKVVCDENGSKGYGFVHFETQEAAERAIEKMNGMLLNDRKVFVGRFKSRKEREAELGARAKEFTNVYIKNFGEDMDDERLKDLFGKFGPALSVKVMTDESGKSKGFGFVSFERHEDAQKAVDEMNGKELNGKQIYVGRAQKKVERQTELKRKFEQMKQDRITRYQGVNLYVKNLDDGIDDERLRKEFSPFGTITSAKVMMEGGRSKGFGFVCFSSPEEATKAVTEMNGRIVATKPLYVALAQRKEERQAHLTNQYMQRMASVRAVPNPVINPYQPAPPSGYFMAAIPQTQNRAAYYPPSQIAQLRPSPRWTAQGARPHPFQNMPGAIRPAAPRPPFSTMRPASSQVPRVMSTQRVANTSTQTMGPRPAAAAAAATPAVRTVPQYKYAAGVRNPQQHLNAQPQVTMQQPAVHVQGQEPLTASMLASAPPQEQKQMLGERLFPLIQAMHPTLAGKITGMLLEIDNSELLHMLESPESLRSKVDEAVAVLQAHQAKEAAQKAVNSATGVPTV
Chain of Voltage-dependent T-type calcium channel subunit alpha-1H (O95180 whole entry): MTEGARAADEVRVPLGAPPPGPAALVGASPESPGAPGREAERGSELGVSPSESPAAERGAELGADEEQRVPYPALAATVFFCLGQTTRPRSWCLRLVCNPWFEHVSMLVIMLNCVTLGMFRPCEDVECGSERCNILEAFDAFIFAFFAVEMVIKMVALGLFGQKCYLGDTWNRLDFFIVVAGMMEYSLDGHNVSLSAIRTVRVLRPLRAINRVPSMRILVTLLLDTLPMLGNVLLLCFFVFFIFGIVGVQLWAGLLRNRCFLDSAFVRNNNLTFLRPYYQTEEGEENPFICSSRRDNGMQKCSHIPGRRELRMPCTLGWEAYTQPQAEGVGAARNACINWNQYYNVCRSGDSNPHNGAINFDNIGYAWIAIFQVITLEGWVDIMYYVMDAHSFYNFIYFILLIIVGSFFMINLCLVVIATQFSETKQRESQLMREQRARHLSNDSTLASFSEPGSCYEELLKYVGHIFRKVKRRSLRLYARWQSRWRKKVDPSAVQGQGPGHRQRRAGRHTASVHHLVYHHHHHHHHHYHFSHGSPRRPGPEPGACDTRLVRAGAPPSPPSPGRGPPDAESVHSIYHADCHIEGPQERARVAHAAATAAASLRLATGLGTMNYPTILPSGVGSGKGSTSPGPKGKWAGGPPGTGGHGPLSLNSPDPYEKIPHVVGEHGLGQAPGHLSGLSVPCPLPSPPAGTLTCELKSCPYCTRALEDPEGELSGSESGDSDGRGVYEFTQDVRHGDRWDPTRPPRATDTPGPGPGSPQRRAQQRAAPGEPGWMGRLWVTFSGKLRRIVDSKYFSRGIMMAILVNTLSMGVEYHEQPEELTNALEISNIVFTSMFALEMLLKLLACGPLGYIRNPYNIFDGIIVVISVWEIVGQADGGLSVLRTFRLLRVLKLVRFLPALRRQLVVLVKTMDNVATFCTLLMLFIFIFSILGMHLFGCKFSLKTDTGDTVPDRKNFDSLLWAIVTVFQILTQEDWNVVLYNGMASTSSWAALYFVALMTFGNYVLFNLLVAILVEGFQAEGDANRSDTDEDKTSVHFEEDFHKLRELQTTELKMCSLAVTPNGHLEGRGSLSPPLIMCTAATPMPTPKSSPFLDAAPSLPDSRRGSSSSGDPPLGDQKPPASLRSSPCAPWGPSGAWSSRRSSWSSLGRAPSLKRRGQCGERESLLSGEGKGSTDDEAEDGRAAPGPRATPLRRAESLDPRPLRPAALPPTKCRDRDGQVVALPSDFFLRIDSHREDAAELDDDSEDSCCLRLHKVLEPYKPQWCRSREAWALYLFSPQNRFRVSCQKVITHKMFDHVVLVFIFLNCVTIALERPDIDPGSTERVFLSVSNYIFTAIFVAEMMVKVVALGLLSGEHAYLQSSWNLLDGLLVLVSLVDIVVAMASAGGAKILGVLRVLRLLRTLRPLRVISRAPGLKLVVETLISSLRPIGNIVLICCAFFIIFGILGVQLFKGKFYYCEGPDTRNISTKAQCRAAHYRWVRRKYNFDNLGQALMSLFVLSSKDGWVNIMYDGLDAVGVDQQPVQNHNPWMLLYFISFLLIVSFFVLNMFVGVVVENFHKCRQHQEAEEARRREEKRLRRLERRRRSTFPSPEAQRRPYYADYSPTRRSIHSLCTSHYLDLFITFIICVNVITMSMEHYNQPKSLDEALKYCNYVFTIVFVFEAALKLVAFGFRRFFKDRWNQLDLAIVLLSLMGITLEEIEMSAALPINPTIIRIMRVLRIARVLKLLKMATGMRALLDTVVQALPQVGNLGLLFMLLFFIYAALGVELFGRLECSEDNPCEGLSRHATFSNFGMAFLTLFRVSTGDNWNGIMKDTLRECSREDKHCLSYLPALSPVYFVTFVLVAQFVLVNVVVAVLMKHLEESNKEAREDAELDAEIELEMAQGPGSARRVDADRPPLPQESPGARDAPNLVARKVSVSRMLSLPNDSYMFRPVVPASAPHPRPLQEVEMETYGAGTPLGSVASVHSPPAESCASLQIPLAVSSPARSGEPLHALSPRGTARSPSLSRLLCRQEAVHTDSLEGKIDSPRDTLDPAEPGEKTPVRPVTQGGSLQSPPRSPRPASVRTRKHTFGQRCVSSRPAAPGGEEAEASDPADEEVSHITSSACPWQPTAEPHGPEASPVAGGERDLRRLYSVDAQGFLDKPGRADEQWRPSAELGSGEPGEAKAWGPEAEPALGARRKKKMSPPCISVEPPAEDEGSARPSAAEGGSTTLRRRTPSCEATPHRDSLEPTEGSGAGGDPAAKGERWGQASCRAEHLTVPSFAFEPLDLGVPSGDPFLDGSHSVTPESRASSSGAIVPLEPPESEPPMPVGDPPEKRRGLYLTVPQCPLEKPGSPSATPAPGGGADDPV

## O=c1c(=NNc2ccccc2Cl)c(=O)c2ccccc12
[1]
  EC50: > 67.5 µM (inactive)
[2]
  EC50: > 67.5 µM (inactive)

## c1ccc(-c2csc(Nc3ccccn3)n2)cc1
[1]
  EC50: > 67.5 µM (inactive)
[3]
  IC50: 18 µM (active)
[2]
  EC50: > 67.5 µM (inactive)

## O=C1NC(=O)C(=NNc2ccc3c(c2)OCCO3)C(=O)N1
[4]
  EC50: < 160 nM (active)
[5]
  IC50: 6.75 µM (active)

## CC(C)Oc1ccc(C(=O)Nc2ccc(NC(=O)c3ccco3)c(Cl)c2)cc1
[6]
  AC50: 22.4 µM (inconclusive)
[7]
  IC50: > 122 µM (inactive)
[8]
  IC50: > 122 µM (inactive)

## c1ccc(Nc2nc(-c3cccs3)cs2)nc1
[1]
  EC50: > 67.5 µM (inactive)
[3]
  IC50: 15.6 µM (active)
[9]
  EC50: 9.21 µM (active)
[2]
  EC50: > 67.5 µM (inactive)

## CCNC(=O)Nc1ccc2c(c1)C(=O)N(C)[C@H]1CC[C@H](CC(=O)N[C@H](C)c3ccccc3)O[C@@H]1CO2
[7]
  IC50: 68.8 µM (inactive)
[8]
  IC50: 61.9 µM (inactive)

## COc1ccc2c3c([nH]c2c1)[C@@H](CO)N(C(=O)Nc1ccc(F)cc1)CC31CN(Cc2cc(F)ccc2F)C1
[10]
  AC50: 18.8 µM (active)

## CC(=O)c1ccc2c(c1)N(CCCN(C)C)c1ccccc1S2 [ACEPROMAZINE MALEATE]
[11]
  IC50: > 66 µM (inactive)
[12]
  IC50: > 66 µM (inactive)
[13]
  IC50: 11.4 µM (inactive)
